Data published in patent US4246273A, “1,5-Disubstituted imidazolid-4-ones” (Beecham Group Limited, priority 1978, dated 1981).

Tested on: indomethacin induced gastric damage
Experiment: Anti-ulcer activity: inhibition of indomethacin induced gastric damage in the rat
Type: in vivo
Details: 100 mg/kg orally, 30 minutes prior to indomethacin 15 mg/kg s.c.; score scale 1-9 after 4 hours; vehicle control 3.71 ± 0.80; P<0.01 (Mann Witney test)
Protocol: Anti-ulcer activity was assessed by the inhibition of indomethacin induced gastric damage in the rat according to the method of Eleghe (1974) Israeli J. Med. Sci. 10. 1451. Rats were starved overnight and given 15 mg/kg indomethacin subcutaneously and sacrificed 4 hours later. Stomachs were reflated with n. saline, cut along the greater curvature pinned out and scored for gastric damage by the following system:
Score 1-3--according to degree of erythema and slight haemorrhage.
Score 4-6--according to degree of muscosal erosion.
Score 7-9--according to depth of gastric damage.
Groups of 7 rats were used for each treatment and the test compound or vehicle were administered 30 minutes prior to giving the indomethacin. Dose of test compound was 100 mg/kg orally and control groups receiving vehicle only were obtained using the above scoring system and the Mann Witney test applied for significance of difference between the values obtained with the treatments.

CCCCCCC(C)(O)CCN1CN(C)C(=O)C1CCCCCCC(=O)OC (stereo not shown) [Compound 6, 1-(3'-hydroxy-3'-methyl-n-nonyl)-3-methyl-5-(6"-methoxycarbonyl-n-hexyl)-4-imidazolidone]
Test Compound Mean Score ± S.E. of Mean (gastric damage): 0.71 ± 0.42
